We go through 29 compounds from patent publication US8802865B2 (Janssen Pharmaceutica, NV, priority 2006, dated 2014).

Each structure is given as a SMILES string.

One assay has as its system levator ani. Briefly: Levator Ani Weight in vivo Assay (stimulation of levator ani weight). Also noted: key: “active” in the Table below if the non weight adjusted prostate weight was ≦40 mg or the % Inhibition prostate weight, body weight adjusted was ≧40% @ 2 mg/day dosage; listed herein as “inactive” as they did not meet the specified criteria defined above. The conditions noted are these: castrated male Sprague Dawley rats, test compound usually orally once daily with testosterone propionate s.c.; levator ani wet weight; criteria at 2 mg/day dosage. On the procedure:
(§1) Ventral Prostate and Levator Ani Weight in vivo Assay
(§2) Immature (approximately 50 g) castrated male Sprague Dawley rats (Charles River) were treated once daily for five days with test compound (usually given orally at 40 mg/kg in a volume of 0.3 mL, in 30% cyclodextrin or 0.5% methylcellulose vehicle) and with testosterone propionate (given subcutaneously by injection at the nape of the neck at 2 mg/kg, in a volume of 0.1 mL in sesame oil). On the sixth day, the rats were euthanized by asphyxiation in carbon dioxide. Ventral prostates and levator ani were removed and their wet weights determined. Test compound activity was determined as the percent inhibition of testosterone-enhanced tissue weights, with a vehicle-treated control group set to zero percent and a testosterone alone-treated control group set to 100%.
(§3) Mature (150- to 200-g) castrated male Sprague Dawley rats (Charles River) are similarly tested according to the procedure described above. The rats were dosed for two weeks, with 0.4 mg/kg testosterone propionate used as the positive control.
(§4) Representative compounds of the present invention were tested according to the procedure described above, with results as listed in Table 3 below. For effect on prostate—i.e. an antagonist—a test compound is listed as “active” in the Table below if the non weight adjusted prostate weight was ≦40 mg or the % Inhibition prostate weight, body weight adjusted was ≧40% @ 2 mg/day dosage. For effect on levator ani—i.e. an agonist—a test compound is listed as “active” in the Table below if the non weight adjusted levator ani weight was ≧40 mg or the % Stimulation levator ani weight, body weight adjusted was ≧40% at 2 mg/day dosage.

The test system of a further assay is ventral prostate. Nature of the assay: Ventral Prostate Weight in vivo Assay (inhibition of testosterone-enhanced tissue weight). Also noted: key: “active” in the Table below if the non weight adjusted prostate weight was ≦40 mg or the % Inhibition prostate weight, body weight adjusted was ≧40% @ 2 mg/day dosage; listed herein as “inactive” as they did not meet the specified criteria defined above. The conditions noted are these: castrated male Sprague Dawley rats, test compound usually orally once daily with testosterone propionate s.c.; ventral prostate wet weight; criteria at 2 mg/day dosage. The method, then: as §1, §2, §3, §4

In the case of `C=C(C)CC(O)(c1nc2cc(Cl)c(Cl)cc2[nH]1)C(F)(F)F` (stereo not shown) [Compound 13, 2-(5,6-Dichloro-1H-benzoimidazol-2-yl)-1,1,1-trifluoro-4-methyl-pent-4-en-2-ol], the L.A. agonist result in the assay with levator ani is “inactive”. In addition, the Prostate antagonist entry in the assay on ventral prostate was “active”.

As for `FC(F)(F)C1(c2nc3cc(Cl)c(Cl)cc3[nH]2)NCCO1` (stereo not shown) [Compound 61, 5,6-Dichloro-2-(2-trifluoromethyl-oxazolidin-2-yl)-1H-benzimidazole], the L.A. agonist entry in the assay with levator ani is “inactive”. For the same compound, the Prostate antagonist result with ventral prostate is on record as “active”.

On to `CC(C)=CC(O)(c1nc2cc(Cl)c(Cl)cc2[nH]1)C(F)(F)F` (stereo not shown) [Compound 14, 2-(5,6-Dichloro-1H-benzoimidazol-2-yl)-1,1,1-trifluoro-4-methyl-pent-3-en-2-ol], for which the L.A. agonist entry in the assay on levator ani was “inactive”. For the same compound, the Prostate antagonist entry in the assay with ventral prostate is reported as “active”.

Consider `C=CC(O)(c1nc2cc(Cl)c(Cl)cc2[nH]1)C(F)(F)F` (single isomer, unassigned; (-)) [Compound 44, (−)-2-(5,6-dichloro-1H-benzoimidazol-2-yl)-1,1,1-trifluoro-but-3-en-2-ol], for which the L.A. agonist result with levator ani was “inactive”. Further, in the assay on ventral prostate, the Prostate antagonist result was “inactive”.

As for `C=CCC(O)(c1nc2cc(Cl)c(Cl)cc2[nH]1)C(F)(F)F` (single isomer, unassigned; (+)) [Compound 23, (+)-Enantiomer of 2-(5,6-Dichloro-1H-benzoimidazol-2-yl)-1,1,1-trifluoro-pent-4-en-2-ol], the L.A. agonist entry with levator ani was “inactive”. Also, in the assay on ventral prostate, the Prostate antagonist result is given as “active”.

Regarding `N#CCn1c(C2(C(F)(F)F)OCCO2)nc2cc(Cl)c(Cl)cc21` [Compound 53, [5,6-Dichloro-2-(2-trifluoromethyl-[1,3]dioxolan-2-yl)-benzoimidazol-1-yl]-acetonitrile], the Prostate antagonist entry in the assay with ventral prostate is recorded as “active”.

Regarding `C=CCn1c(C2(C(F)(F)F)OCCO2)nc2cc(Cl)c(Cl)cc21` [Compound 55, 1-Allyl-5,6-dichloro-2-(2-trifluoromethyl-[1,3]dioxolan-2-yl)-1H-benzoimidazole], in the assay with ventral prostate, the Prostate antagonist result is reported as “active”.

For `C=CC(C)(C)C(O)(c1nc2cc(Cl)c(Cl)cc2[nH]1)C(F)(F)F` (stereo not shown) [Compound 25, 2-(5,6-Dichloro-1H-benzoimidazol-2-yl)-1,1,1-trifluoro-3,3-dimethyl-pent-4-en-2-ol], in the assay on levator ani, the L.A. agonist result is “inactive”. For the same compound, the Prostate antagonist entry in the assay with ventral prostate is on record as “active”.

On to `FC(F)(F)C1(c2nc3cc(Cl)c(Cl)cc3[nH]2)OCC(CCl)O1` (stereo not shown) [Compound 50, 5,6-Dichloro-2-(4-chloromethyl-2-trifluoromethyl-[1,3]dioxolan-2-yl)-1H-benzimidazole], for which, in the assay with ventral prostate, the Prostate antagonist result is listed as “active”.

`CCn1c(C2(C(F)(F)F)OCCO2)nc2cc(Cl)c(Cl)cc21` [Compound 56, 5,6-Dichloro-1-ethyl-2-(2-trifluoromethyl-[1,3]dioxolan-2-yl)-1H-benzoimidazole]: the Prostate antagonist result with ventral prostate is “active”.

In the case of `OCC1COC(c2nc3cc(Cl)c(Cl)cc3[nH]2)(C(F)(F)F)O1` (stereo not shown) [Compound 49, [2-(5,6-Dichloro-1H-benzoimidazol-2-yl)-2-trifluoromethyl-[1,3]dioxolan-4-yl]-methanol], the L.A. agonist result in the assay on levator ani is “inactive”. Besides, in the assay with ventral prostate, the Prostate antagonist result is listed as “active”.

For the compound `C=C=C(C)C(O)(c1nc2cc(Cl)c(Cl)cc2[nH]1)C(F)(F)F` (stereo not shown) [Compound 6, 2-(5,6-Dichloro-1H-benzoimidazol-2-yl)-1,1,1-trifluoro-3-methyl-pent-3,4-dien-2-ol], the L.A. agonist result in the assay on levator ani is “inactive”. Further, in the assay with ventral prostate, the Prostate antagonist result is given as “active”.

Take `CC(C)=C(C)C(O)(c1nc2cc(Cl)c(Cl)cc2[nH]1)C(F)(F)F` (stereo not shown) [Compound 42, 2-(5,6-Dichloro-1H-benzoimidazol-2-yl)-1,1,1-trifluoro-3,4-dimethyl-pent-3-en-2-ol]: in the assay with levator ani, the L.A. agonist entry was “inactive”. The Prostate antagonist result in the assay on ventral prostate was “active”.

With `C=CCC(O)(c1nc2cc(Cl)c(Cl)cc2[nH]1)C(F)(F)F` (single isomer, unassigned; (-)) [Compound 24, (−)-Enantiomer of 2-(5,6-Dichloro-1H-benzoimidazol-2-yl)-1,1,1-trifluoro-pent-4-en-2-ol], the L.A. agonist entry in the assay with levator ani was “inactive”. Also, the Prostate antagonist entry in the assay with ventral prostate is listed as “active”.

As for `COC(=O)Cn1c(C2(C(F)(F)F)OCCO2)nc2cc(Cl)c(Cl)cc21` [Compound 57, [5,6-Dichloro-2-(2-trifluoromethyl-[1,3]dioxolan-2-yl)-benzoimidazol-1-yl]-acetic acid methyl ester], in the assay with ventral prostate, the Prostate antagonist result is “inactive”.

As to `C#CCC(O)(c1nc2cc(C#N)c(C(F)(F)F)cc2[nH]1)C(F)(F)F` (stereo not shown) [Compound 39, 2-(1-Hydroxy-1-trifluoromethyl-but-3-ynyl)-6-trifluoromethyl-1H-benzoimidazole-5-carbonitrile], in the assay on levator ani, the L.A. agonist result is “inactive”. The Prostate antagonist result in the assay with ventral prostate is listed as “active”.

`FC(F)(F)C1(c2nc3cc(Cl)c(Cl)cc3[nH]2)OCCO1` [Compound 47, 5,6-Dichloro-2-(2-trifluoromethyl-[1,3]dioxolan-2-yl)-1H-benzimidazole]: the Prostate antagonist entry with ventral prostate is reported as “active”.

As to `N#Cc1cc2nc(C3(C(F)(F)F)OCCO3)[nH]c2cc1C(F)(F)F` [Compound 59, 6-Trifluoromethyl-2-(2-trifluoromethyl-[1,3]dioxolan-2-yl)-1H-benzimidazole-5-carbonitrile], in the assay with levator ani, the L.A. agonist result is “inactive”. Moreover, the Prostate antagonist result in the assay on ventral prostate was “active”.

Take `C=CC(C)C(O)(c1nc2cc(Cl)c(Cl)cc2[nH]1)C(F)(F)F` (stereo not shown) [Compound 26]: the L.A. agonist result with levator ani was “inactive”. Moreover, the Prostate antagonist result with ventral prostate is on record as “active”.

For `Cn1c(C2(C(F)(F)F)OCCO2)nc2cc(Cl)c(Cl)cc21` [Compound 52, 5,6-Dichloro-1-methyl-2-(2-trifluoromethyl-[1,3]dioxolan-2-yl)-1H-benzoimidazole], the Prostate antagonist entry with ventral prostate was “inactive”.

Take `C#CCn1c(C2(C(F)(F)F)OCCO2)nc2cc(Cl)c(Cl)cc21` [Compound 54, 5,6-Dichloro-1-prop-2-ynyl-2-(2-trifluoromethyl-[1,3]dioxolan-2-yl)-1H-benzoimidazole]: in the assay with ventral prostate, the Prostate antagonist result is “active”.

`C/C=C/C(O)(c1nc2cc(Cl)c(Cl)cc2[nH]1)C(F)(F)F` (stereo not drawn) [Compound 16, 2-(5,6-Dichloro-1H-benzoimidazol-2-yl)-1,1,1-trifluoro-trans-pent-3-en-2-ol]: the L.A. agonist result in the assay on levator ani was “inactive”. Moreover, the Prostate antagonist result with ventral prostate is given as “active”.

Consider `FC(F)(F)C1(c2nc3cc(Cl)c(Cl)cc3[nH]2)OCCCO1` [Compound 51, 5,6-Dichloro-2-(2-trifluoromethyl-[1,3]dioxan-2-yl)-1H-benzimidazole], for which the L.A. agonist entry in the assay on levator ani was “inactive”. Moreover, in the assay on ventral prostate, the Prostate antagonist entry is “active”.

Consider `C=C(CC(O)(c1nc2cc(Cl)c(Cl)cc2[nH]1)C(F)(F)F)C(=O)O` (stereo not shown) [Compound 27, 2-[2-(5,6-Dichloro-1H-benzoimidazol-2-yl)-3,3,3-trifluoro-2-hydroxy-propyl]-acrylic acid], for which the L.A. agonist result in the assay on levator ani is “inactive”. In addition, the Prostate antagonist entry in the assay with ventral prostate was “inactive”.

With `FC(F)(F)C1(c2nc3cc(Cl)c(Cl)cc3[nH]2)NCCN1` [Compound 60, 5,6-Dichloro-2-(2-trifluoromethyl-imidazolidin-2-yl)-1H-benzimidazole], the Prostate antagonist result in the assay on ventral prostate is on record as “active”.

On to `C=C=C(CC)C(O)(c1nc2cc(Cl)c(Cl)cc2[nH]1)C(F)(F)F` (stereo not shown) [Compound 62, 2-(5,6-Dichloro-1H-benzoimidazol-2-yl)-3-ethyl-1,1,1-trifluoro-penta-3,4-dien-2-ol], for which, in the assay with ventral prostate, the Prostate antagonist entry is given as “active”.

On to `CC#CC(O)(c1nc2cc(Cl)c(Cl)cc2[nH]1)C(F)(F)F` (stereo not shown) [Compound 8, 2-(5,6-Dichloro-1H-benzoimidazol-2-yl)-1,1,1-trifluoro-pent-3-yn-2-ol], for which the L.A. agonist entry with levator ani is “inactive”. For the same compound, the Prostate antagonist entry with ventral prostate was “active”.

As for `C=CCCC(O)(c1nc2cc(Cl)c(Cl)cc2[nH]1)C(F)(F)F` (stereo not shown) [Compound 40, 2-(5,6-Dichloro-1H-benzoimidazol-2-yl)-1,1,1-trifluoro-hex-5-en-2-ol], the Prostate antagonist entry in the assay on ventral prostate is recorded as “active”.

Consider `C#CCC(O)(c1nc2cc(Cl)c(Cl)cc2n1C)C(F)(F)F` (stereo not shown) [Compound 35, 2-(5,6-Dichloro-1-methyl-1H-benzoimidazol-2-yl)-1,1,1-trifluoro-pent-4-yn-2-ol], for which, in the assay on ventral prostate, the Prostate antagonist entry was “inactive”.
